Measurements published in patent US4870160A, “Polypeptides with laminin activity” (Regents of the University of Minnesota, priority 1987, dated 1989).
Peptide text beside a SMILES is read from it.

Assays:
[1] = Heparin binding assay on nitrocellulose sheets (Example 1); settings: peptide on nitrocellulose, 1 mg/ml to 1 μg/ml, 2 hours, FIG. 4
Procedure: The assay for heparin binding utilizes nitrocellulose sheets as subtrata to bind peptides or proteins to be tested for heparin binding activity. Peptides 9 and 11-18 were solubilized in 50 mM NH3 HCO3 to form solutions of 1 mg/ml. Each solution was serially diluted 1:1 in the same buffer producing concentrations from 1 mg/ml to 1 μg/ml. Nitrocellulose sheets which had been presoaked in 50 mM NH3 HCO3 were placed in a 96 well dot blot apparatus (Bethesda Research Laboratories, Bethesda, MD, and 100 μl of various concentrations of each peptide were aspirated through the wells. Each well was then washed three times with binding buffer (10 mM Tris-HCl, pH 8.0, 0.15 M NaCl), and the filters were removed and allowed to air dry overnight. The filters were then equilibriated for 5 minutes at room temperature in binding buffer which contained 10 mM CaCl2. ^3 H-heparin was then diluted to a concentration of 50,000 cpm/ml in binding buffer (with Ca^++), and nitrocellulose sheets were incubated in the presence of this mixture for 2 hours. The filters were then washed four times with binding buffer, and air dried. The individual spots of samples were cut out of the nitrocellulose, immersed in scintillation fluid and bound heparin was quantitated with a Beckman LS-3801 liquid scintillation counter. […]

intact, native laminin = intact, native laminin (Mus musculus, UniProt P02469+P19137); assay: Inhibition of heparin binding to laminin by peptide fragments in solution (Example 3); settings: peptides in solution 1 mg/ml to 1 μg/ml, laminin coated on plastic at 60 μg/ml, FIG. 6
Procedure: Peptides 9, 11-14 and 16 in solution (and not absorbed to plastic), were screened for the ability to inhibit the binding of heparin to intact, native laminin coated on plastic. This experimental approach avoids problems due to differential coating of peptides in heparin binding assays. Laminin at 60 μg/ml in PBS was coated on 96-well plates, using 50 μls per well and dried overnight at 28+ C. The wells were then treated for two hours with 2 mg/ml BSA in wash buffer (described above in Example 2). Peptides at various dilutions ranging from 1 mg/ml to 1 μg/ml in PBS and CHAPS (Cholamido-propyl-dimethyl-Axmmonio-PropaneSulfonate)(a detergent used to avoid non-specific sticking) were co-incubated with a standard amount of ^3 H-heparin (25,000 cpm per well 5 μg/ml final concentration) for two hours at 37° C. and the mixture was then transferred to the laminin coated plate (50 μl) and allowed to incubate for another two hours at 37° C. The wells were then washed and radioactivity was counted as described above.

[2] = test system: Bovine aortic endothelial cells; assay: Aortic endothelial cell adhesion assay (Example 5); format: cell-based; settings: 0.1; 1.0; and 10.0 μg/per well adsorbed, 120 minutes at 37° C, FIG. 9
Procedure: Bovine aortic endothelial cells were isolated according to the following protocol. Aortas were obtained from a local slaughterhouse, washed in cold phosphate buffered saline (PBS) (136 mM NaCl, 2.6 mM KCl, 15.2 mM Na2HP04, pH 7.2) and processed within 2 hours. Crude collagenase (CLS III, 125-145 units per mg dry weight, Cooper Biomedical) was used at 2 mg/ml in Dulbecco's modified Eagle's medium (DMEM) (GIBCO). The vessel was clamped at the distal end, filled with the collagenase-PBS solution and digestion was carried out for 10 minutes. The lumenal contents were harvested, followed by the addition of fresh collagenase for two additional 10-minute periods. The enzyme-cell suspensions were added to an equal volume of DMEM containing 10% fetal bovine serum (FBS) to inhibit the enzyme and spun in a centrifuge at 400×g for 10 minutes. The resulting cell pellet was resuspended in DMEM containing 10% FBS, 100 units/ml of penicillin G, 100 μg/ml of streptomycin and 100 μg/ml of crude fibroblast growth factor. Cells are cultured in 75 cm^2 flasks in a humidified 5% CO2 atmosphere at 37° C. Cultures were fed twice a week with the same medium and cells were used in assays when approximately 75% confluent. Cells were identified as endothelial in nature by characteristic cobblestone morphology, contact inhibition of growth upon reaching confluency, and positive immunofluorescent staining for factor VIII:RAg (Miles Laboratories) [S. Schwartz, In Vitro, 14, 966 (1978)]. Only endothelial cells, megakaryocytes and platelets are known to contain the factor VIII:RAg. This method routinely gives a high yield of endothelial cells with little contamination (less than 5%) by smooth muscle cells, pericytes or fibroblasts as judged by phase contrast microscopy as well as by immunostaining.
Adhesion was measured using 96 well microtiter plates adsorbed with three different amounts (0.1; 1.0; and 10.0 μg/per well) of peptides 9, 11-18, BSA and laminin. Cultures of cells which were 60-80% confluent were metabolically labeled for 24 hours with the addition of 3 mCi/ml of ^3 H-amino acid mixture. On the day of the assay, the cells were harvested by trypsinization, the trypsin was inhibited by the addition of serum, and the cells were washed free of this mixture and resuspended in DMEM buffered with HEPES at pH 7.2. The adhesion medium also contained 2 mg/ml BSA. The cells were adjusted to a concentration of 3-4×10^4 /ml and 100 μls of this cell suspension was added to the wells. The assay mixture was then incubated at 37° C for 120 minutes. […] The solubilized cells were then quantitated using a liquid scintillation counter. […]

[3] = test system: PC12 rat pheochromocytoma cells; assay: Cell adhesion assay for PC12 pheochromocytoma cell line (Example 6D); format: cell-based; settings: FIG. 13
Procedure: Adhesion was measured using 96 well microtiter plates adsorbed with three different amounts (0.1; 1.0; and 10.0 μg/per well) of peptides 9, 11-18, BSA and laminin. Cultures of cells which were 60-80% confluent were metabolically labeled for 24 hours with the addition of 3 mCi/ml of ^3 H-amino acid mixture. On the day of the assay, the cells were harvested by trypsinization, the trypsin was inhibited by the addition of serum, and the cells were washed free of this mixture and resuspended in DMEM buffered with HEPES at pH 7.2. The adhesion medium also contained 2 mg/ml BSA. The cells were adjusted to a concentration of 3-4×10^4 /ml and 100 μls of this cell suspension was added to the wells. The assay mixture was then incubated at 37° C for 120 minutes. At the end of the incubation, the wells were washed with warm PBS containing 10 mM Ca^++, and the adherent population was solubilized with 0.5N NaOH containing 1% sodium dodecyl sulfate. The solubilized cells were then quantitated using a liquid scintillation counter. Each determination was done in triplicate.
PC12 rat pheochromocytoma cells were provided by Dr. P. Letourneau of the Department of Anatomy, University of Minnesota, Minneapolis, Minn. Culturing techniques were as described in part A. Labelling and harvesting techniques were as described in Example 5. Cell adhesion assay was performed as described in Example 5.

binding of ^3 H-heparin [1] | inhibition of binding of heparin to laminin (intact, native laminin) | SMILES | endothelial cell adhesion [2] | cell adhesion [3]
strongly bound ^3 H-heparin | interact most strongly with heparin | CC[C@H](C)[C@H](NC(=O)[C@H](CCCCN)NC(=O)[C@H](CC(C)C)NC(=O)[C@H](C)NC(=O)[C@H](CCCCN)NC(=O)[C@H](C)NC(=O)[C@H](CCCCN)NC(=O)[C@H](CCC(=O)O)NC(=O)[C@H](CC(C)C)NC(=O)[C@H](Cc1ccccc1)NC(=O)[C@H](CCCCN)NC(=O)[C@H](Cc1c[nH]cn1)NC(=O)[C@@H](NC(=O)[C@H](CCCNC(=N)N)NC(=O)[C@H](CC(N)=O)NC(=O)[C@@H](NC(=O)[C@H](CC(C)C)NC(=O)[C@@H](N)CCC(=O)O)[C@@H](C)O)[C@@H](C)O)C(=O)O [Peptide F13, ELTNRTHKFLEKAKALKI] (H-ELTNRTHKFLEKAKALKI-OH) | potent promoters of endothelial cell adhesion | potent promoters of cell adhesion
strongly bound ^3 H-heparin | interact most strongly with heparin | CSCC[C@H](NC(=O)CNC(=O)[C@H](CCCCN)NC(=O)[C@H](CCC(=O)O)NC(=O)[C@H](Cc1ccccc1)NC(=O)[C@H](CS)NC(=O)[C@@H](NC(=O)[C@@H]1CCCN1C(=O)[C@H](CCCNC(=N)N)NC(=O)[C@@H]1CCCN1C(=O)[C@H](CC(C)C)NC(=O)[C@@H](NC(=O)[C@@H](NC(=O)[C@H](Cc1ccc(O)cc1)NC(=O)[C@@H](N)CCCNC(=N)N)C(C)C)C(C)C)C(C)C)C(=O)N[C@@H](CC(N)=O)C(=O)N[C@@H](Cc1ccc(O)cc1)C(=O)N[C@H](C(=O)N[C@H](C(=O)N[C@@H](CCCNC(=N)N)C(=O)O)C(C)C)[C@@H](C)O [Peptide F9] (H-RYVVLPRPVCFEKGMNYTVR-OH) | potent promoters of endothelial cell adhesion | potent promoters of cell adhesion
